Data set [1] can be described thus: Compound was measured for lactate dehydrogenase (LDH) release in HaCaT cells after treatment with 2 uM. The data set is classed as functional, Homo sapiens.
Data set [2] can be described thus: Partition coefficient (logP). The conditions noted are these: octanol/water. Type of data set: physicochemical.
A short description of data set [3]: In vitro for antiproliferate activity against HaCaT cells. The data set is classed as functional, cell-based. As to conditions: Homo sapiens.
Data set [4] can be described thus: Deoxyribose degradation as a measure of hydroxyl-radical generation. Type of data set: functional.

The values below come from ChEMBL document CHEMBL1131554, “10-omega-phenylalkyl-9(10H)-anthracenones as inhibitors of keratinocyte growth with reduced membrane damaging properties” (Bioorg Med Chem Lett, 1998).

In data set [1], `COc1ccc(CCC2c3cccc(O)c3C(=O)c3c(O)cccc32)cc1` showed an LDH of 129 MU. In data set [2], the logP (usually the decadic logarithm of the partition coefficient of the neutral form, usually between octanol and water) came to 5.07. Moreover, the IC50 (usually the midpoint of a concentration-inhibition curve) in data set [3] amounted to 0.9 µM. In data set [4], this compound came in with an Activity (uM of MDA (mM of deoxyribose)-1) of under 0.2.
`O=C1c2c(O)cccc2C(CCc2ccccc2)c2cccc(O)c21` showed a logP in data set [2] of 5.27. In data set [3], this compound had a concentration for half-maximal inhibition (IC50) of under 5 µM. This compound also had an Activity (uM of MDA (mM of deoxyribose)-1) in data set [4] of under 0.2.
For the compound `O=C1c2c(O)cccc2Cc2cccc(O)c21` [ANTHRALIN], the LDH in data set [1] was determined as 294 MU. Further, the IC50 in data set [3] was 0.7 µM.
`O=C1c2c(O)cccc2C(Cc2ccncc2)c2cccc(O)c21` registered an LDH in data set [1] of 179 MU. The logP in data set [2] came to 3.47. Besides, the IC50 in data set [3] worked out at 1.8 µM. The compound further registered an Activity (uM of MDA (mM of deoxyribose)-1) in data set [4] of 1.25.
Take `O=C1c2c(O)cccc2C(CCc2ccc(O)cc2)c2cccc(O)c21`: in data set [1], the LDH is 136 MU. In addition, the logP in data set [2] is 4.1. In data set [3], this compound yielded an IC50 of 3.8 µM. For the same compound, the Activity (uM of MDA (mM of deoxyribose)-1) in data set [4] came out at 0.4.
`O=C1c2c(O)cccc2C(CCc2ccc(O)c(O)c2)c2cccc(O)c21` registered a log partition coefficient (logP) in data set [2] of 3.65. The compound further returned a concentration for half-maximal inhibition (IC50) in data set [3] of over 5 µM. In addition, in data set [4], the Activity (uM of MDA (mM of deoxyribose)-1) worked out at 0.56.
In the same order, the values of `O=C1c2c(O)cccc2C(CCCCc2ccccc2)c2cccc(O)c21` are 5.72, under 5 µM and under 0.2.
The compound `O=C1c2c(O)cccc2C(CCCc2ccccc2)c2cccc(O)c21` had an LDH in data set [1] of 130 MU. This compound showed a lipophilicity (logP) in data set [2] of 5.51. This compound also yielded an IC50 in data set [3] of over 5 µM. The Activity (uM of MDA (mM of deoxyribose)-1) in data set [4] is under 0.2.
In turn, `COc1ccc(CCC2c3cccc(O)c3C(=O)c3c(O)cccc32)cc1OC` yielded a logP in data set [2] of 4.55. In data set [3], this compound gave an IC50 of 3 µM. Further, the Activity (uM of MDA (mM of deoxyribose)-1) in data set [4] was under 0.2.
In turn, `COc1cc(CCC2c3cccc(O)c3C(=O)c3c(O)cccc32)cc(OC)c1OC` showed a logP in data set [2] of 4.37. This compound also showed an IC50 in data set [3] of 4.1 µM. The Activity (uM of MDA (mM of deoxyribose)-1) in data set [4] worked out at 0.97.
Compound `COc1ccc(CC(=O)C2c3cccc(O)c3C(=O)c3c(O)cccc32)cc1` showed an LDH in data set [1] of 143 MU. The compound also showed a logP in data set [2] of 4.2. Moreover, the IC50 in data set [3] was found to be 1.1 µM. For the same compound, the Activity (uM of MDA (mM of deoxyribose)-1) in data set [4] was under 0.2.
For `COc1ccc(CC2c3cccc(O)c3C(=O)c3c(O)cccc32)cc1`, the LDH in data set [1] stood at 152 MU. This compound also had a logP in data set [2] of 4.45. In data set [3], this compound gave an IC50 of over 5 µM. Further, the Activity (uM of MDA (mM of deoxyribose)-1) in data set [4] was under 0.2.
For `O=C1c2c(O)cccc2C(CCc2cc(O)c(O)c(O)c2)c2cccc(O)c21`, in that order: 225 MU, 3.09, over 5 µM and 2.3.
As to `O=C1c2c(O)cccc2C(Cc2ccc([N+](=O)[O-])cc2)c2cccc(O)c21`, the LDH in data set [1] came out at 142 MU. Besides, the logP in data set [2] stood at 4.16. Besides, the half-maximal inhibitory concentration (IC50) in data set [3] is under 5 µM. This compound also returned an Activity (uM of MDA (mM of deoxyribose)-1) in data set [4] of under 0.2.
Take `O=C1c2c(O)cccc2C(Cc2ccccc2)c2cccc(O)c21`: in data set [1], the LDH was 150 MU. In addition, the IC50 in data set [3] is over 5 µM. The Activity (uM of MDA (mM of deoxyribose)-1) in data set [4] worked out at 0.35.
